Data: the supplement of paper PMC12592484

Experiments:
Test in all cases: drug sensitivity score (DSS2, normalised partial AUC of dose-response, 72 h CellTiter-Glo viability) (DSS (dimensionless)); higher = more sensitive (stronger growth inhibition / cytotoxicity); extreme values may be limits of the assay
22Rv1 = system: 22Rv1
In short: (§1)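 Five doses spanning a 10,000-fold range were pre-dispensed into 384-well plates, into which low-passage primary prostate cancer-associated fibroblasts, PF179T, WPMY-1, LNCaP and 22Rv1 cells were seeded. After 72 h, CellTiter-Glo 2.0 luminescence measured viability, scaled to vehicle and positive-control wells. Higher values of the drug sensitivity score, a BREEZE-computed partial area under the fitted logistic dose–response curve divided by the log of the upper asymptote, mean greater sensitivity.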

CAF#1 = system: CAF#1 (primary prostate cancer-associated fibroblasts of myCAF-like type)
In short: as §1

CAF#2 = system: CAF#2 (primary prostate cancer-associated fibroblasts of iCAF-like type)
In short: as §1

CAF#3 = system: CAF#3 (primary prostate cancer-associated fibroblasts of myCAF-like type)
In short: as §1

CAF#4 = system: CAF#4 (primary prostate cancer-associated fibroblasts of iCAF-like type)
In short: as §1

CAF#5 = system: CAF#5 (primary prostate cancer-associated fibroblasts of myCAF-like type)
In short: as §1

CAF#6 = system: CAF#6 (primary prostate cancer-associated fibroblasts of iCAF-like type)
In short: as §1

CAF#7 = system: CAF#7 (primary prostate cancer-associated fibroblasts of myCAF-like type)
In short: as §1

LNCAP = system: LNCAP
In short: as §1

PF179T = system: PF179T
In short: as §1

WPMY-1 = system: WPMY-1
In short: as §1

| SMILES | drug sensitivity score (22Rv1) | drug sensitivity score (CAF#1) | drug sensitivity score (CAF#2) | drug sensitivity score (CAF#3) | drug sensitivity score (CAF#4) | drug sensitivity score (CAF#5) | drug sensitivity score (CAF#6) | drug sensitivity score (CAF#7) | drug sensitivity score (LNCAP) | drug sensitivity score (PF179T) | drug sensitivity score (WPMY-1) |
| --- | --- | --- | --- | --- | --- | --- | --- | --- | --- | --- | --- |
| CNC(=O)c1ccc(-c2cnc3ncc(Cc4ccc5ncccc5c4)n3n2)cc1F [Capmatinib] (tested concentration range 0.1-1000 nM) | 0 | 0 | 3.1 | 0 | 0 | 0 | 0 | 0 | 0 | 0.4 | 0.1 |
| COC[C@H](NC(=O)c1cnc(C)s1)C(=O)N[C@@H](COC)C(=O)N[C@@H](Cc1ccccc1)C(=O)[C@@]1(C)CO1 [Oprozomib] (tested concentration range 0.2-2500 nM) | 20.7 | 14 | 16 | 10.3 | 11.4 | 13.1 | 10.5 | 9.7 | 20.8 | 14.6 | 25.7 |
| CCS(=O)(=O)Nc1ccc(Oc2ccc(F)cc2F)c(-c2cn(C)c(=O)c3[nH]ccc23)c1 [Mivebresib] (tested concentration range 1-10000 nM) | 23.5 | 19 | 19.7 | 19.3 | 10.7 | 15.5 | 13.3 | 11.4 | 30.7 | 11.1 | 22.9 |
| Nc1cccc2c1CN(C1CCC(=O)NC1=O)C2=O (stereo unspecified) [Lenalidomide] (tested concentration range 10-100000 nM) | 0 | 1.4 | 2.2 | 0 | 3 | 1.1 | 0 | 0 | 0 | 0 | 0 |
| O=C1c2c(O)ccc(O)c2C(=O)c2c(NCCNCCO)ccc(NCCNCCO)c21 [Mitoxantrone] (tested concentration range 0.1-1000 nM) | 10.7 | 3.7 | 8.9 | 1.2 | 5 | 6.6 | 4 | 7.2 | 14.7 | 9.9 | 15 |
| COc1nc(N)nc2c1ncn2[C@@H]1O[C@H](CO)[C@@H](O)[C@@H]1O [Nelarabine] (tested concentration range 1-10000 nM) | 0 | 0 | 0 | 0 | 0 | 0 | 0 | 0 | 0 | 0 | 0 |
